Assay results taken from publication PMC9271048, “Probing strigolactone perception mechanisms with rationally designed small-molecule agonists stimulating germination of root parasitic weeds” (Nature Communications, 2022).
Like-named read-outs stand apart in the source and are kept apart here.

Key:
[1] = Chemical reactivity analysis (HPLC, methanol/PBS pH 7.4); assay type: physicochemical
Description: Chemical reactivity is an important factor in the bioactivity of natural and synthetic SLs.
One hundred twenty microliters of sample solution was added to a solution of PBS (10 mM, pH 7.4, 810 μL) and methanol (270 μL). The solution was stirred vigorously for 30 s and then transferred to HPLC vial, and the vial was stored at 26 ± 1 °C. […] The analytical column was Extend-C18 (4.6 mm × 150 mm × 5 μm). The mobile phases were CH3CN and H2O (containing 0.1% HCO2H), VCH3CN:VH2O = 50:50, with a flow rate of 1 mL/min, and an injection volume of 5 μL. The percentage of remaining compounds in the solution was calculated from the peak area. The half-life times (t1/2) of samples were calculated.

ShHTL7 = ShHTL7 (Striga hermonthica, UniProt A0A0M3PNA2); test: biochemical; assay type: binding
ShHTL7, sequence (A0A0M3PNA2 entry or part of it): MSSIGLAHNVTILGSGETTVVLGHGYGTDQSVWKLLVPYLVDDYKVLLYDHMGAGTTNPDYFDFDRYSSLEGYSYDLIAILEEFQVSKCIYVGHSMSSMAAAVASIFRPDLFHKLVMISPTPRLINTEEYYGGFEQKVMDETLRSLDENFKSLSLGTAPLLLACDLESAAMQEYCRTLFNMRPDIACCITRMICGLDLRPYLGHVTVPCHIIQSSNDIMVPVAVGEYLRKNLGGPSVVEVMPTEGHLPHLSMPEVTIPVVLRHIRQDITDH
Outline: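 Surface plasmon resonance was run at 25 °C on ShHTL7 immobilized by amine coupling, using phosphate-buffered saline with 0.05% P20 and 0.5% DMSO. Each injection had 1 min association and 1 min dissociation, with a 50 μM screen followed by concentration series. KD was derived by kinetic analysis or steady-state affinity.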

[2] = system: PaKAI2s (5 KAI2 protein homologs in P. aegyptiaca); test: YLG-based competition assay on KAI2 protein homologs of P. aegyptiaca; assay type: biochemical, Phelipanche aegyptiaca; settings: Supplementary Fig. 27
Description: (§1) In P. aegyptiaca, 5 KAI2s have been proposed as the SL receptors for the regulation of seed germination. […] The high sequence similarity may explain the consistency of these compounds in inducing germination in both S. hermonthica and P. aegyptiaca.
(§2) The excitation and emission wavelengths of YLG are 480 and 520 nm, respectively. We used a fluorescence spectrophotometer (CARY Eclipse) to detect the fluorescence intensity change of YLG during the enzymatic hydrolysis assay process. All the testing compounds and YLG were dissolved in DMSO and prepared as stock solutions just before use. […] The changes of fluorescence at 520 nm of each well were recorded every 1 min for 30 min. Using the reaction mixture without adding enzyme and tested compounds as the background control. After subtracting the background hydrolysis, a linear fluorescence increase in 8 min was used for further inspection. The IC50 values were determined via fitting relative inhibition percentages with the varying concentrations of compounds in Microsoft Excel.
(§3) Supplementary Fig. 27. Binding of compounds 4a, (R)- and (S)-4a, and 4g-i to the HTL proteins in S. hermonthica and KAI2 protein homologs in P. aegyptiaca. In the competitive inhibitory activity assay, YLG (3 µM) was used as the fluorogenic substrate. Error bar indicates SD (n = 3 biologically independent experiments).
(§4) (1 picture or pasted object on this page, not shown here)

[3] = system: ShHTLs (10 HTL proteins in S. hermonthica); test: YLG-based competition assay on HTL proteins of S. hermonthica; assay type: biochemical, Striga hermonthica; settings: Supplementary Fig. 27
Description: as §1, §2, §3, §4

[4] = KAI2C, YLG competition, read-out: IC50, replicate 1
[5] = KAI2C, YLG competition, read-out: IC50, replicate 2
[6] = KAI2C, YLG competition, read-out: IC50, replicate 3
[7] = KAI2C, average of 3 replicates, read-out: IC50, average
[8] = KAI2d1, YLG competition, read-out: IC50, replicate 1
[9] = KAI2d1, YLG competition, read-out: IC50, replicate 2
[10] = KAI2d1, YLG competition, read-out: IC50, replicate 3
[11] = KAI2d1, average of 3 replicates, read-out: IC50, average
[12] = KAI2d2, YLG competition, read-out: IC50, replicate 1
[13] = KAI2d2, YLG competition, read-out: IC50, replicate 2
[14] = KAI2d2, YLG competition, read-out: IC50, replicate 3
[15] = KAI2d2, average of 3 replicates, read-out: IC50, average
[16] = KAI2d3, YLG competition, read-out: IC50, replicate 1
[17] = KAI2d3, YLG competition, read-out: IC50, replicate 2
[18] = KAI2d3, YLG competition, read-out: IC50, replicate 3
[19] = KAI2d3, average of 3 replicates, read-out: IC50, average
[20] = KAI2d4, YLG competition, read-out: IC50, replicate 1
[21] = KAI2d4, YLG competition, read-out: IC50, replicate 2
[22] = KAI2d4, YLG competition, read-out: IC50, replicate 3
[23] = KAI2d4, average of 3 replicates, read-out: IC50, average
[24] = ShHTL2, YLG competition, read-out: IC50, replicate 1
[25] = ShHTL2, YLG competition, read-out: IC50, replicate 2
[26] = ShHTL2, YLG competition, read-out: IC50, replicate 3
[27] = ShHTL2, average of 3 replicates, read-out: IC50, average
[28] = ShHTL3, YLG competition, read-out: IC50, replicate 1
[29] = ShHTL3, YLG competition, read-out: IC50, replicate 2
[30] = ShHTL3, YLG competition, read-out: IC50, replicate 3
[31] = ShHTL3, average of 3 replicates, read-out: IC50, average
[32] = ShHTL4, YLG competition, read-out: IC50, replicate 1
[33] = ShHTL4, YLG competition, read-out: IC50, replicate 2
[34] = ShHTL4, YLG competition, read-out: IC50, replicate 3
[35] = ShHTL4, average of 3 replicates, read-out: IC50, average
[36] = ShHTL5, YLG competition, read-out: IC50, replicate 1
[37] = ShHTL5, YLG competition, read-out: IC50, replicate 2
[38] = ShHTL5, YLG competition, read-out: IC50, replicate 3
[39] = ShHTL5, average of 3 replicates, read-out: IC50, average
[40] = ShHTL6, YLG competition, read-out: IC50, replicate 1
[41] = ShHTL6, YLG competition, read-out: IC50, replicate 2
[42] = ShHTL6, YLG competition, read-out: IC50, replicate 3
[43] = ShHTL6, average of 3 replicates, read-out: IC50, average
[44] = ShHTL8, YLG competition, read-out: IC50, replicate 1
[45] = ShHTL8, YLG competition, read-out: IC50, replicate 2
[46] = ShHTL8, YLG competition, read-out: IC50, replicate 3
[47] = ShHTL8, average of 3 replicates, read-out: IC50, average
[48] = ShHTL9, YLG competition, read-out: IC50, replicate 1
[49] = ShHTL9, YLG competition, read-out: IC50, replicate 2
[50] = ShHTL9, YLG competition, read-out: IC50, replicate 3
[51] = ShHTL9, average of 3 replicates, read-out: IC50, average
[52] = ShHTL10, YLG competition, read-out: IC50, replicate 1
[53] = ShHTL10, YLG competition, read-out: IC50, replicate 2
[54] = ShHTL10, YLG competition, read-out: IC50, replicate 3
[55] = ShHTL10, average of 3 replicates, read-out: IC50, average
[56] = ShHTL11, YLG competition, read-out: IC50, replicate 1
[57] = ShHTL11, YLG competition, read-out: IC50, replicate 2
[58] = ShHTL11, YLG competition, read-out: IC50, replicate 3
[59] = ShHTL11, average of 3 replicates, read-out: IC50, average

## CC1=CC(OC(=O)N2CCN(C(=O)COc3ccc(Br)cc3C)CC2)OC1=O (stereo not drawn) [4a]
[1]; methanol/phosphate-buffered saline mixture, Supplementary Fig. 10 source data, methanol/PBS pH 7.4, 26 °C, read-out: half-life time (t1/2), source data average (converted)
  half-life at 0.5 mM: 3.38 h
ShHTL7
  Kd: 2.07 ± 0.51 µM
[2]; [4]
  IC50: 10.9 µM
[2]; [5]
  IC50: 13.8 µM
[2]; [6]
  IC50: 21.5 µM
[2]; [7]
  IC50: 15.4 µM
[2]; [8]
  IC50: 33.3 µM
[2]; [9]
  IC50: 33.3 µM
[2]; [10]
  IC50: 24.8 µM
[2]; [11]
  IC50: 30.5 µM
[2]; [12]
  IC50: 40.8 µM
[2]; [13]
  IC50: 46.6 µM
[2]; [14]
  IC50: 48.6 µM
[2]; [15]
  IC50: 45.3 µM
[2]; [16]
  IC50: 30.6 µM
[2]; [17]
  IC50: 26.4 µM
[2]; [18]
  IC50: 27.7 µM
[2]; [19]
  IC50: 28.2 µM
[2]; [20]
  IC50: 17.4 µM
[2]; [21]
  IC50: 17.7 µM
[2]; [22]
  IC50: 26.3 µM
[2]; [23]
  IC50: 20.5 µM
[3]; [24]
  IC50: 56.1 µM
[3]; [25]
  IC50: 49 µM
[3]; [26]
  IC50: 62.1 µM
[3]; [27]
  IC50: 55.8 µM
[3]; [28]
  IC50: 43.3 µM
[3]; [29]
  IC50: 41.4 µM
[3]; [30]
  IC50: 44.5 µM
[3]; [31]
  IC50: 43 µM
[3]; [32]
  IC50: 6.23 µM
[3]; [33]
  IC50: 4.7 µM
[3]; [34]
  IC50: 3.91 µM
[3]; [35]
  IC50: 4.95 µM
[3]; [36]
  IC50: 18.6 µM
[3]; [37]
  IC50: 15.2 µM
[3]; [38]
  IC50: 13.3 µM
[3]; [39]
  IC50: 15.7 µM
[3]; [40]
  IC50: 28.4 µM
[3]; [41]
  IC50: 23.6 µM
[3]; [42]
  IC50: 18.4 µM
[3]; [43]
  IC50: 23.5 µM
[3]; [44]
  IC50: 14.7 µM
[3]; [45]
  IC50: 15.3 µM
[3]; [46]
  IC50: 21.5 µM
[3]; [47]
  IC50: 17.2 µM
[3]; [48]
  IC50: 20.4 µM
[3]; [49]
  IC50: 21.8 µM
[3]; [50]
  IC50: 26.6 µM
[3]; [51]
  IC50: 22.9 µM
[3]; [52]
  IC50: 31.1 µM
[3]; [53]
  IC50: 39.7 µM
[3]; [54]
  IC50: 31 µM
[3]; [55]
  IC50: 33.9 µM
[3]; [56]
  IC50: 9.32 µM
[3]; [57]
  IC50: 9.73 µM
[3]; [58]
  IC50: 13.1 µM
[3]; [59]
  IC50: 10.7 µM

## CC1=CC(OC(=O)N2CCN(C(=O)COc3ccc(Br)cc3C)CC2)N(C)C1=O (stereo not drawn) [4h]
[1]; 1:3 methanol and PBS (10 mM) pH 7.4, HPLC
  half-life time (t1/2): 1.1 h
[1]; Supplementary Fig. 10 source data, methanol/PBS pH 7.4, 26 °C
  half-life time (t1/2), source data average: 1.095 h
ShHTL7; Supplementary Table 7, binding affinities between ShHTL7 and agonists by SPR, read-out: KD/μM
  Kd: 12.1 ± 0.94 µM
[2]; [4]
  IC50: 23.3 µM
[2]; [5]
  IC50: 36.9 µM
[2]; [6]
  IC50: 38.5 µM
[2]; [7]
  IC50: 32.9 µM
[2]; [8]
  IC50: 24.7 µM
[2]; [9]
  IC50: 22.1 µM
[2]; [10]
  IC50: 27.9 µM
[2]; [11]
  IC50: 24.9 µM
[2]; [12]
  IC50: 71.4 µM
[2]; [13]
  IC50: 67.3 µM
[2]; [14]
  IC50: 71.7 µM
[2]; [15]
  IC50: 70.1 µM
[2]; [16]
  IC50: 30.6 µM
[2]; [17]
  IC50: 41.8 µM
[2]; [18]
  IC50: 41.3 µM
[2]; [19]
  IC50: 37.9 µM
[2]; [20]
  IC50: > 100 µM
[2]; [21]
  IC50: > 100 µM
[2]; [22]
  IC50: > 100 µM
[2]; [23]
  IC50: > 100 µM
[3]; [24]
  IC50: 72.3 µM
[3]; [25]
  IC50: 78.3 µM
[3]; [26]
  IC50: 79.2 µM
[3]; [27]
  IC50: 76.6 µM
[3]; [28]
  IC50: > 100 µM
[3]; [29]
  IC50: > 100 µM
[3]; [30]
  IC50: > 100 µM
[3]; [31]
  IC50: > 100 µM
[3]; [32]
  IC50: 12.7 µM
[3]; [33]
  IC50: 14.6 µM
[3]; [34]
  IC50: 8.97 µM
[3]; [35]
  IC50: 12.1 µM
[3]; [36]
  IC50: 32.9 µM
[3]; [37]
  IC50: 39.4 µM
[3]; [38]
  IC50: 42.1 µM
[3]; [39]
  IC50: 38.1 µM
[3]; [40]
  IC50: > 100 µM
[3]; [41]
  IC50: > 100 µM
[3]; [42]
  IC50: > 100 µM
[3]; [43]
  IC50: > 100 µM
[3]; [44]
  IC50: 65.9 µM
[3]; [45]
  IC50: 81.2 µM
[3]; [46]
  IC50: 80.4 µM
[3]; [47]
  IC50: 75.8 µM
[3]; [48]
  IC50: > 100 µM
[3]; [49]
  IC50: > 100 µM
[3]; [50]
  IC50: > 100 µM
[3]; [51]
  IC50: > 100 µM
[3]; [52]
  IC50: 47.3 µM
[3]; [53]
  IC50: 41.8 µM
[3]; [54]
  IC50: 41.6 µM
[3]; [55]
  IC50: 43.6 µM
[3]; [56]
  IC50: > 100 µM
[3]; [57]
  IC50: > 100 µM
[3]; [58]
  IC50: > 100 µM
[3]; [59]
  IC50: > 100 µM
